Values after ≈ are worked out from the molar mass of the structure shown. Where two headings read alike, the source gives them in different places. Each block holds one compound with its values, some of them ahead of it.
Assays:
[1] = tested on: platelet aggregation induced by arachidonic acid (AA); assay: Antiplatelet assay, arachidonic acid-induced aggregation; type: cell-based, rabbit; details: for IC50 / Percent aggregation, AA: AA 100 μM
Description: (§1) c. Antiplatelet assay. Blood, collected from the marginal ear vein of rabbits was mixed with EDTA to a final concentration of 6 mM and centrifuged at 90 g for 10 mm at room temperature to obtain platelet-rich plasma. The latter was further centrifuged at 500 g for 10 mm and the platelets were washed with Tyrode's solution without EDTA. After centrifugation at the same conditions, the platelets were suspended in Tyrode's solution with the following compositions (mM): NaCl (136.8), KCl (2.8), NaNCO3(11.9), MgCl2(1.1), NaH2PO4(0.33), CaCl2(1.0), and glucose (11.2). Platelet numbers were determined with a Coulter Counter (Model ZM) and adjusted to 4.5×10^8 platelets/ml.
(§2) Aggregation was measured by the turbidimetric method [O'brien, J. R. J. Clin. Pathol. 1962, 15,452] with a dual-channel Lumi aggregometer (Model 1020, Payton, Canada). All glass ware was siliconized. Test compounds were added one minute before the addition of the aggregation inducer and the platelet suspension was stirred at 900 rpm. The percentage of aggregation was calculated as previously described [Teng, C. M.; Chen, W. Y.; Ko, W. C.; Ouyang, C. Biochem. Biophys. Acta. 1987, 924, 375].

[2] = tested on: ileocecal carcinoma (HCT-8); assay: In vitro cytotoxicity, HCT-8; details: Homo sapiens; for IC50: HCT-8, 96 h, read-out: ED50 HCT-8; for inhibition at 20 µg/mL: HCT-8, read-out: Inhibition at highest test concentration (in brackets), HCT-8
[3] = tested on: melanoma (SKMEL-2); assay: In vitro cytotoxicity, SKMEL-2; details: for IC50 / inhibition at 20 µg/mL: Homo sapiens; for IC50: SK-MEL-2, 96 h, read-out: ED50 SKMEL-2; for Inhibition value of plateau-dose response (in brackets), SKMEL-2: inhibition plateaus over broad dose range; for inhibition at 20 µg/mL: SK-MEL-2, read-out: Inhibition at highest test concentration (in brackets), SKMEL-2
[4] = tested on: human ovarian cancer (1A9); assay: In vitro cytotoxicity, 1A9; details: 96 h, read-out: ED50 1A9
[5] = tested on: epidermoid carcinoma of the nasopharynx (KB); assay: In vitro cytotoxicity, KB; details: Homo sapiens; for IC50: 96 h, read-out: ED50 KB; for inhibition at 20 µg/mL: read-out: Inhibition at highest test concentration (in brackets), KB
[6] = tested on: P-gp-expressing epidermoid carcinoma of the nasopharynx (KB-VIN); assay: In vitro cytotoxicity, KB-VIN; details: Homo sapiens, KBVIN; for IC50: 96 h, read-out: ED50 KB-VIN
[7] = tested on: bone (HOS); assay: In vitro cytotoxicity, HOS; details: Homo sapiens; for IC50: 96 h, read-out: ED50 HOS; for inhibition at 20 µg/mL: read-out: Inhibition at highest test concentration (in brackets), HOS
[8] = tested on: breast cancer (MCF-7); assay: In vitro cytotoxicity, MCF-7; details: Homo sapiens; for IC50: MCF7, 96 h, read-out: ED50 MCF-7; for inhibition at 20 µg/mL: MCF7, read-out: Inhibition at highest test concentration (in brackets), MCF-7
[9] = tested on: prostate cancer (PC3); assay: In vitro cytotoxicity, PC3; details: Homo sapiens; for IC50: 96 h, read-out: ED50 PC3; for inhibition at 20 µg/mL: read-out: Inhibition at highest test concentration (in brackets), PC3
[10] = tested on: lung carcinoma (A-549); assay: In vitro cytotoxicity, A-549; details: Homo sapiens; for IC50: A549, 96 h, read-out: ED50 A-549; for inhibition at 20 µg/mL: A549, read-out: Inhibition at highest test concentration (in brackets), A-549
[11] = tested on: bovine brain tubulin; assay: Tubulin polymerization assay (antimicrotubule assay); details: read-out: ITP (inhibition of tubulin polymerization) IC50; tubulin […] (12 μM), 26° C., 20 min
[12] = tested on: platelet aggregation induced by thrombin; assay: Antiplatelet assay, thrombin-induced aggregation; type: cell-based, rabbit; details: for Percent aggregation, thrombin: thrombin 0.1 U/ml
Description: as §1, §2

[13] = tested on: platelet aggregation induced by platelet-activating factor (PAF); assay: Antiplatelet assay, PAF-induced aggregation; type: cell-based, rabbit; details: for Percent aggregation, PAF: PAF 2 ng/ml
Description: as §1, §2

[14] = tested on: platelet aggregation induced by collagen; assay: Antiplatelet assay, collagen-induced aggregation; type: cell-based, rabbit
Description: as §1, §2

[15] = Oryctolagus cuniculus, Platelet, 37° C., 1 min preincubation, read-out: IC50, platelet aggregation induced by arachidonic acid (in vitro) (Table 6)

Compound: 4-Ethoxycarbonylbutoxy-2-phenylquinazoline [Compound 73]
IC50 ([1]; 37° C., 1 min preincubation, read-out: IC50, platelet aggregation induced by arachidonic acid (in vitro) (Table 6)): 173 µM

Compound: COc1ccccc1C1NC(=O)c2ccccc2N1 (racemic) [Compound 60, 2,3-Dihydro-2-(2′-methoxyphenyl)-4-quinazolinone]
IC50 [2]: > 20 µg/mL | inhibition at 20 µg/mL [2]: 21% | IC50 [3]: < 20 µg/mL | Inhibition value of plateau-dose response (in brackets), SKMEL-2 [3]: 52% | IC50 [4]: 14.7 µg/mL (≈ 57.8 µM) | IC50 [5]: > 20 µg/mL | inhibition at 20 µg/mL [5]: 32% | IC50 [6]: 10.2 µg/mL (≈ 40.1 µM) | IC50 [7]: > 20 µg/mL | inhibition at 20 µg/mL [7]: 38% | IC50 [8]: > 20 µg/mL | inhibition at 20 µg/mL [8]: 48% | IC50 [9]: > 20 µg/mL | inhibition at 20 µg/mL [9]: 30% | IC50 [10]: > 20 µg/mL | inhibition at 20 µg/mL [10]: 44% | IC50 [11]: > 40 µM

Compound: COc1ccc(C2NC(=O)c3ccccc3N2)cc1 (racemic) [Compound 62, 2,3-Dihydro-2-(4′-methoxyphenyl)-4-quinazolinone]
IC50 [2]: > 20 µg/mL | inhibition at 20 µg/mL [2]: 19% | IC50 [3]: > 20 µg/mL | inhibition at 20 µg/mL [3]: 23% | IC50 [4]: 20 µg/mL (≈ 78.7 µM) | IC50 [5]: > 20 µg/mL | inhibition at 20 µg/mL [5]: 14% | IC50 [6]: > 20 µg/mL | inhibition at 20 µg/mL ([6]; read-out: Inhibition at highest test concentration (in brackets), KB-VIN): 39% | IC50 [7]: > 20 µg/mL | inhibition at 20 µg/mL [7]: 13% | IC50 [8]: > 20 µg/mL | inhibition at 20 µg/mL [8]: 44% | IC50 [9]: > 20 µg/mL | inhibition at 20 µg/mL [9]: 14% | IC50 [10]: > 20 µg/mL | inhibition at 20 µg/mL [10]: 34% | IC50 [11]: > 40 µM

Compound: CC(=O)Oc1ccccc1C(=O)O [Aspirin]
IC50 [1, 15]: 20 µM

More lines, main results first:

IC50 [11]: > 40 µM
Compound: COc1cccc(C2NC(=O)c3ccccc3N2)c1OC (racemic) [Compound 63, 2,3-Dihydro-2-(2′,3′-dimethoxyphenyl)-4-quinazolinone]
IC50 [2]: > 20 µg/mL | inhibition at 20 µg/mL [2]: 39% | IC50 [3]: < 20 µg/mL | Inhibition value of plateau-dose response (in brackets), SKMEL-2 [3]: 53% | IC50 [4]: 11.4 µg/mL (≈ 40.1 µM) | IC50 [5]: > 20 µg/mL | inhibition at 20 µg/mL [5]: 41% | IC50 [6]: 8.6 µg/mL (≈ 30.2 µM) | IC50 [7]: > 20 µg/mL | inhibition at 20 µg/mL [7]: 34% | IC50 [8]: > 20 µg/mL | inhibition at 20 µg/mL [8]: 40% | IC50 [9]: > 20 µg/mL | inhibition at 20 µg/mL [9]: 20% | IC50 [10]: > 20 µg/mL | inhibition at 20 µg/mL [10]: 39%

IC50 [11]: > 40 µM
Compound: COc1ccc(C2NC(=O)c3ccccc3N2)c(OC)c1 (racemic) [Compound 64, 2,3-Dihydro-2-(2′,4′-dimethoxyphenyl)-4-quinazolinone]
IC50 [2]: > 20 µg/mL | inhibition at 20 µg/mL [2]: 29% | IC50 [3]: > 20 µg/mL | inhibition at 20 µg/mL [3]: 37% | IC50 [4]: 12.5 µg/mL (≈ 44 µM) | IC50 [5]: > 20 µg/mL | inhibition at 20 µg/mL [5]: 43% | IC50 [6]: 7.6 µg/mL (≈ 26.7 µM) | IC50 [7]: > 20 µg/mL | inhibition at 20 µg/mL [7]: 40% | IC50 [8]: > 20 µg/mL | inhibition at 20 µg/mL [8]: 44% | IC50 [9]: > 20 µg/mL | inhibition at 20 µg/mL [9]: 28% | IC50 [10]: > 20 µg/mL | inhibition at 20 µg/mL [10]: 43%

IC50 [11]: > 40 µM
Compound: COc1ccc(C2NC(=O)c3ccccc3N2)cc1OC (racemic) [Compound 66, 2,3-Dihydro-2-(3′,4′-dimethoxyphenyl)-4-quinazolinone]
IC50 [2]: > 20 µg/mL | inhibition at 20 µg/mL [2]: 25% | IC50 [3]: > 20 µg/mL | inhibition at 20 µg/mL [3]: 24% | IC50 [4]: 14.6 µg/mL (≈ 51.4 µM) | IC50 [5]: > 20 µg/mL | inhibition at 20 µg/mL [5]: 28% | IC50 [6]: 16 µg/mL (≈ 56.3 µM) | IC50 [7]: > 20 µg/mL | inhibition at 20 µg/mL [7]: 24% | IC50 [8]: 20 µg/mL (≈ 70.3 µM) | IC50 [9]: > 20 µg/mL | inhibition at 20 µg/mL [9]: 30% | IC50 [10]: > 20 µg/mL | inhibition at 20 µg/mL [10]: 41%

IC50 [1, 15]: 7.2 µM | IC50 ([1]; Oryctolagus cuniculus, Platelet, read-out: IC50, AA-induced platelet aggregation (Table 5)): 7.2 µM | IC50 ([14]; Oryctolagus cuniculus, Platelet, collagen 10 μg/ml, read-out: IC50, collagen-induced platelet aggregation (Table 5)): 8.47 µM
Compound: COc1nc(-c2ccccc2)nc2ccccc12 [Compound 69, 4-Methoxy-2-phenylquinazoline]
Inhibition of thrombin-induced platelet aggregation in words ([12]; Table 5): poor inhibitors | Percent aggregation, thrombin ([12]; compound 20 μg/ml): 88.1 ± 0.8(3) % | Percent aggregation, thrombin ([12]; compound 50 μg/ml): 13.3 ± 5.3(3) % | Percent aggregation, thrombin ([12]; compound 100 μg/ml, 37° C., 1 min preincubation): 2.8 ± 2.3(3) % | Inhibition of PAF-induced platelet aggregation in words ([13]; Table 5): poor inhibitors | Percent aggregation, PAF ([13]; compound 20 μg/ml): 87.9 ± 1.8(4) % | Percent aggregation, PAF ([13]; compound 50 μg/ml): 38.1 ± 8.3(4) % | Percent aggregation, PAF ([13]; compound 100 μg/ml): 2.1 ± 1.8(4) % | Inhibition of AA-induced platelet aggregation in words ([1]; Table 5): relatively stronger inhibitors | Percent aggregation, AA ([1]; compound 0.5 μg/ml): 86.0 ± 1.2(4) % | Percent aggregation, AA ([1]; compound 1 μg/ml): 65.0 ± 8.1(4) % | Percent aggregation, AA ([1]; compound 2 μg/ml): 35.3 ± 14.9(4) % | Percent aggregation, AA ([1]; compound 5 μg/ml): 15.0 ± 11.8(4) % | Percent aggregation, AA ([1]; compound 10 μg/ml): 0.0 ± 0.0(4) % | Percent aggregation, AA ([1]; compound 100 μg/ml): 0.0 ± 0.0(4) % | Inhibition of collagen-induced platelet aggregation in words ([14]; Table 5): relatively stronger inhibitors | Percent aggregation, collagen ([14]; compound 0.2 μg/ml, collagen 10 μg/ml): 88.4 ± 1.9(4) % | Percent aggregation, collagen ([14]; compound 0.5 μg/ml, collagen 10 μg/ml): 76.2 ± 3.7(4) % | Percent aggregation, collagen ([14]; compound 1 μg/ml, collagen 10 μg/ml): 52.6 ± 7.5(4) % | Percent aggregation, collagen ([14]; compound 2 μg/ml, collagen 10 μg/ml): 43.0 ± 6.4(4) % | Percent aggregation, collagen ([14]; compound 5 μg/ml, collagen 10 μg/ml): 31.5 ± 6.4(4) % | Percent aggregation, collagen ([14]; compound 10 μg/ml, collagen 10 μg/ml): 1.1 ± 0.9(4) % | Percent aggregation, collagen ([14]; compound 20 μg/ml, collagen 10 μg/ml): 0.0 ± 0.0(4) % | Percent aggregation, collagen ([14]; compound 100 μg/ml, collagen 10 μg/ml): 0.0 ± 0.0(4) %
